Experiments:
[1] = molecular target: T1, catalytic domain of MMP-13 enzyme (Homo sapiens, UniProt P45452); experiment: Assay for determining MMP-13 inhibition (fluorescent substrate); type: biochemical; details: Table 1, activity group
T1 construct: stock solution of catalytic domain of MMP-13 enzyme (produced by Alantos or commercially available from Invitek (Berlin), Cat.# 30100812); purchased Invitek (Berlin) 30100812
Protocol: (§1) The typical assay for MMP-13 activity is carried out in assay buffer comprised of 50 mM Tris, pH 7.5, 150 mM NaCl, 5 mM CaCl2 and 0.05% Brij-35. Different concentrations of tested compounds are prepared in assay buffer in 50 μL aliquots. […] The mixture of enzyme and compound in assay buffer is thoroughly mixed and incubated for 10 min at room temperature. […] The time-dependent increase in fluorescence is measured at the 320 nm excitation and 390 nm emission by automatic plate multireader. The IC50 values are calculated from the initial reaction rates.

[2] = molecular target: T2, activated MMP-8 enzyme (Homo sapiens, UniProt P22894); experiment: Assay for determining MMP-8 inhibition (fluorescent substrate); type: biochemical; details: Table 2, activity group
T2 construct: purchased Calbiochem 444229
T2 sequence (P22894 101-467): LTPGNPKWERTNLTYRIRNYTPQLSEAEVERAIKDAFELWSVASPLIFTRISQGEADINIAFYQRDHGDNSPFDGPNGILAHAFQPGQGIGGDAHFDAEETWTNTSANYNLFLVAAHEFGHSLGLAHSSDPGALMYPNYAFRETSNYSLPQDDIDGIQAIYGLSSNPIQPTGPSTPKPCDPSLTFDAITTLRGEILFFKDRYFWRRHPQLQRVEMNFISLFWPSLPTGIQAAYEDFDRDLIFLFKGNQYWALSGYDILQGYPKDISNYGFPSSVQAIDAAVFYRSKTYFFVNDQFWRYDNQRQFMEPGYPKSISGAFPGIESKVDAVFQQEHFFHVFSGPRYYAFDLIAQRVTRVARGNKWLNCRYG
Protocol: as §1, with “MMP-8” for “MMP-13”, “37° C.” for “room temperature.”, “by an” for “by”, “multireader at 37° C.” for “multireader.”

NC(=O)[C@@H](NC(=O)c1nc2sc3c(c2c(=O)[nH]1)CCC3)c1ccccc1 [2/327]
IC50 [1]: 100 to 20000 nM

COC(=O)c1cccc(CNC(=O)c2nc3sc4c(c3c(=O)[nH]2)CCC4)c1 [2/316]
IC50 [1]: < 100 nM | IC50 [2]: 250 to 20000 nM

O=C(NCc1ccc(CN2CCOCC2)cc1)c1nc2sc3c(c2c(=O)[nH]1)CCC3 [2/355]
IC50 [1]: 100 to 20000 nM

O=C(NCc1ccc2c(c1)OCO2)c1nc2sc3c(c2c(=O)[nH]1)CCC3 [2/382]
IC50 [2]: 250 to 20000 nM

NS(=O)(=O)c1ccc(CCNC(=O)c2nc3sc4c(c3c(=O)[nH]2)CCC4)cc1 [2/530]
IC50 [1]: 100 to 20000 nM

O=C1COc2ccc(CNC(=O)c3nc4sc5c(c4c(=O)[nH]3)CCC5)cc2N1 [Example 1]
IC50 [1]: < 100 nM | IC50 [2]: < 250 nM

NC(=O)C1CCCCc2sc3nc(C(=O)NCc4ccc5c(c4)NC(=O)CO5)[nH]c(=O)c3c21 (stereo not drawn) [2/267]
IC50 [1]: < 100 nM | IC50 [2]: < 250 nM

Nc1c(NCc2cc(CNC(=O)c3nc4sc5c(c4c(=O)[nH]3)CCC5)ccc2F)c(=O)c1=O [2/417]
IC50 [1]: < 100 nM | IC50 [2]: 250 to 20000 nM

O=C(NCc1cccnc1)c1nc2sc3c(c2c(=O)[nH]1)CCC3 [2/309]
IC50 [1]: < 100 nM

NC(=O)CNC(=O)C1CCc2sc3nc(C(=O)NCc4ccc5c(c4)NC(=O)CO5)[nH]c(=O)c3c21 (stereo not drawn) [2/255]
IC50 [1]: < 100 nM | IC50 [2]: < 250 nM

Nc1c(N2CCc3ccc(CNC(=O)c4nc5sc6ccccc6c5c(=O)[nH]4)cc3C2)c(=O)c1=O [2/67]
IC50 [1]: < 100 nM

COC(=O)C1(CNC(=O)c2nc3sc4c(c3c(=O)[nH]2)CCC4)CCCCC1 [2/526]
IC50 [1]: < 100 nM

CC(=O)N1Cc2sc3nc(C(=O)NCc4ccc5c(c4)NC(=O)CO5)[nH]c(=O)c3c2C1 [Example 42]
IC50 [2]: 250 to 20000 nM

O=C1COc2ccc(CNC(=O)c3nc4sc5c(c4c(=O)[nH]3)CCS5)cc2N1 [2/121]
IC50 [1]: < 100 nM | IC50 [2]: < 250 nM

COC(=O)c1ccc(CNC(=O)C2CCc3sc4nc(C(=O)NCc5ccc6c(c5)NC(=O)CO6)[nH]c(=O)c4c32)cc1 (stereo not drawn) [2/169]
IC50 [1]: < 100 nM | IC50 [2]: < 250 nM

O=C(NCc1ccc(F)c(OC(F)(F)F)c1)c1nc2sc3c(c2c(=O)[nH]1)CCC3 [2/332]
IC50 [1]: < 100 nM

O=C(NCc1ccc2c(c1)OCCO2)c1nc2sc3c(c2c(=O)[nH]1)CCC3 [2/428]
IC50 [1]: 100 to 20000 nM | IC50 [2]: 250 to 20000 nM

O=C(CCc1ccc2sccc2c1)c1nc2sc3c(c2c(=O)[nH]1)CCC3 [2/352]
IC50 [1]: 100 to 20000 nM

Cc1cc(CNC(=O)C2CCc3sc4nc(C(=O)NCc5ccc6c(c5)NC(=O)CO6)[nH]c(=O)c4c32)ccc1F (stereo not drawn) [2/176]
IC50 [1]: < 100 nM | IC50 [2]: < 250 nM

CC(C)(C)c1ccc2c(c1)sc1nc(C(=O)NCc3ccc4c(c3)NC(=O)CO4)[nH]c(=O)c12 [2/143]
IC50 [1]: 100 to 20000 nM

CC1SCc2sc3nc(C(=O)NCc4ccc5c(c4)NC(=O)CO5)[nH]c(=O)c3c21 (stereo not drawn) [2/131]
IC50 [1]: < 100 nM | IC50 [2]: < 250 nM

Cc1cc(CNC(=O)c2nc3sc4c(c3c(=O)[nH]2)CCS(=O)(=O)C4)ccc1F [2/130]
IC50 [1]: 100 to 20000 nM | IC50 [2]: 250 to 20000 nM

CS(=O)(=O)c1ccc(CNC(=O)c2nc3sc4c(c3c(=O)[nH]2)CCC4)cc1 [2/302]
IC50 [1]: 100 to 20000 nM

O=C(NCc1ccc(F)c(Cl)c1)c1nc2sc3c(c2c(=O)[nH]1)CCC3 [2/433]
IC50 [1]: 100 to 20000 nM | IC50 [2]: 250 to 20000 nM

O=C1COc2cc(CNC(=O)c3nc4sc5ccccc5c4c(=O)[nH]3)ccc2N1 [2/24]
IC50 [1]: 100 to 20000 nM

O=C1COc2cc(CNC(=O)c3nc4sc5c(c4c(=O)[nH]3)CCCC5)ccc2N1 [2/34]
IC50 [1]: 100 to 20000 nM

O=C1COc2ccc(CNC(=O)c3nc4sc5c(c4c(=O)[nH]3)CCCCCC5)cc2N1 [2/125]
IC50 [1]: < 100 nM | IC50 [2]: < 250 nM

O=C1COc2ccc(CNC(=O)c3nc4sc5c(c4c(=O)[nH]3)CN(Cc3ccccc3)C5)cc2N1 [Example 43/1]
IC50 [2]: < 250 nM

O=C1COc2ccc(CNC(=O)c3nc4sc5ccccc5c4c(=O)[nH]3)cc2N1 [2/25]
IC50 [1]: < 100 nM | IC50 [2]: < 250 nM

CS(=O)(=O)c1ccc(CNC(=O)C2CCc3sc4nc(C(=O)NCc5ccc6c(c5)NC(=O)CO6)[nH]c(=O)c4c32)cc1 (stereo not drawn) [2/170]
IC50 [1]: < 100 nM | IC50 [2]: < 250 nM

CC(NC(=O)C1CCc2sc3nc(C(=O)NCc4ccc5c(c4)NC(=O)CO5)[nH]c(=O)c3c21)c1ccccc1 (stereo not drawn) [2/175]
IC50 [1]: < 100 nM | IC50 [2]: < 250 nM

CC(=O)N1CCc2c(sc3nc(C(=O)NCc4ccc5c(c4)NC(=O)CO5)[nH]c(=O)c23)C1 [2/94]
IC50 [1]: < 100 nM | IC50 [2]: < 250 nM

O=C(NC(c1ccccc1)c1ccccn1)c1nc2sc3c(c2c(=O)[nH]1)CCC3 (stereo not drawn) [2/328]
IC50 [1]: 100 to 20000 nM

Nc1c(N2CCc3ccc(CNC(=O)c4nc5sc6c(c5c(=O)[nH]4)CC(C(=O)O)C6)cc3C2)c(=O)c1=O (stereo not drawn) [4/14]
IC50 [1]: < 100 nM | IC50 [2]: < 250 nM

COc1cccc(CNC(=O)c2nc3sc4c(c3c(=O)[nH]2)CCS(=O)(=O)C4)c1 [2/129]
IC50 [1]: < 100 nM | IC50 [2]: 250 to 20000 nM

NC(=O)C1CCc2sc3nc(C(=O)NCc4ccc5c(c4)NC(=O)CO5)[nH]c(=O)c3c21 (stereo not drawn) [Example 2/166]
IC50 [1]: < 100 nM | IC50 [2]: < 250 nM

O=C(NCc1cccc(N2CCOCC2)c1)c1nc2sc3c(c2c(=O)[nH]1)CCC3 [2/359]
IC50 [1]: < 100 nM

C#CCNC(=O)C1CCc2sc3nc(C(=O)NCc4ccc5c(c4)NC(=O)CO5)[nH]c(=O)c3c21 (stereo not drawn) [2/223]
IC50 [2]: < 250 nM

Nc1c(N2CCc3ccc(CNC(=O)c4nc5sc6c(c5c(=O)[nH]4)CCCCCC6)cc3C2)c(=O)c1=O [2/126]
IC50 [1]: < 100 nM | IC50 [2]: < 250 nM

COC(=O)C1SCCN1C(=O)c1nc2sc3c(c2c(=O)[nH]1)CCC3 (stereo not drawn) [2/307]
IC50 [1]: 100 to 20000 nM

CS(=O)(=O)N1CCc2ccc(CNC(=O)c3nc4sc5c(c4c(=O)[nH]3)CCC5)cc2C1 [2/538]
IC50 [1]: 100 to 20000 nM | IC50 [2]: 250 to 20000 nM

CC(C)(C)c1ccc2c(c1)sc1nc(C(=O)NCc3ccc4c(c3)CN(c3c(N)c(=O)c3=O)CC4)[nH]c(=O)c12 [2/144]
IC50 [1]: 100 to 20000 nM

O=C1COc2ccc(CNC(=O)c3nc4sc5c(c4c(=O)[nH]3)CCOC5)cc2N1 [2/152]
IC50 [1]: < 100 nM | IC50 [2]: < 250 nM

O=C(NCc1ccc(C(F)(F)F)nc1)c1nc2sc3c(c2c(=O)[nH]1)CCC3 [2/368]
IC50 [1]: 100 to 20000 nM

O=C(NCC1CC1)c1nc2sc3c(c2c(=O)[nH]1)CCC3 [2/291]
IC50 [1]: 100 to 20000 nM

O=C1COc2ccc(CNC(=O)c3nc4sc5c(c4c(=O)[nH]3)CCCNC5)cc2N1 [15/4]
IC50 [1]: < 100 nM

O=C(NCc1ccc2occc2c1)c1nc2sc3c(c2c(=O)[nH]1)CCC3 [2/354]
IC50 [1]: < 100 nM

O=C(c1nc2sc3c(c2c(=O)[nH]1)CCC3)N1CC[C@H]2CCCC[C@@H]2C1 [2/305]
IC50 [1]: 100 to 20000 nM

COC(=O)C1Cc2sc3nc(C(=O)NCc4ccc5c(c4)CN(c4c(N)c(=O)c4=O)CC5)[nH]c(=O)c3c2C1 (stereo not drawn) [2/230]
IC50 [2]: < 250 nM

O=C1COc2ccc(CNC(=O)c3nc4sc5c(c4c(=O)[nH]3)C3CCN5CC3)cc2N1 [2/89]
IC50 [1]: < 100 nM

COc1cccc(CNC(=O)c2nc3sc4c(c3c(=O)[nH]2)CCC4)c1 [2/387]
IC50 [2]: 250 to 20000 nM

CN1CCc2c(sc3nc(C(=O)NCc4ccc5c(c4)NC(=O)CO5)[nH]c(=O)c23)C1 [2/29]
IC50 [1]: < 100 nM

O=C1COc2ccc(CNC(=O)c3nc4cc5c(cc4c(=O)[nH]3)CCC5)cc2N1 [2/246]
IC50 [1]: < 100 nM

O=C1COc2ccc(CNC(=O)c3nc4sc5c(c4c(=O)[nH]3)CCCSC5)cc2N1 [Example 2/218]
IC50 [2]: < 250 nM

O=C1COc2ccc(CNC(=O)c3nc4sc5c(c4c(=O)[nH]3)CCCS5)cc2N1 [2/119]
IC50 [1]: < 100 nM

O=C(NCc1ccsc1)c1nc2sc3c(c2c(=O)[nH]1)CCC3 [2/344]
IC50 [1]: 100 to 20000 nM

Nc1c(N2CCc3ccc(CNC(=O)c4nc5sc6c(c5c(=O)[nH]4)CCCSC6)cc3C2)c(=O)c1=O [2/219]
IC50 [1]: < 100 nM

Nc1c(N2CCc3ccc(CNC(=O)c4nc5sc6c(c5c(=O)[nH]4)CCCS6)cc3C2)c(=O)c1=O [2/120]
IC50 [1]: < 100 nM

O=C1COc2ccc(CNC(=O)c3nc4sc5c(c4c(=O)[nH]3)CNCC5)cc2N1 [15/5]
IC50 [1]: < 100 nM

Nc1c(N2CCc3ccc(CNC(=O)c4nc5sc6c(c5c(=O)[nH]4)CCC(c4ccccc4)C6)cc3C2)c(=O)c1=O (stereo not drawn) [2/146]
IC50 [1]: 100 to 20000 nM

CC(C)NC(=O)c1nc2sc3c(c2c(=O)[nH]1)CCC3 [2/294]
IC50 [1]: 100 to 20000 nM

O=C1COc2ccc(CNC(=O)c3nc4sc5c(c4c(=O)[nH]3)CCNCC5)cc2N1 [15/3]
IC50 [2]: 250 to 20000 nM

C[C@@H](NC(=O)c1nc2sc3c(c2c(=O)[nH]1)CCC3)c1ccc(F)cc1 [2/319]
IC50 [1]: 100 to 20000 nM

O=C(NCc1cccc(N2CCOCC2)c1)c1nc2sc3c(c2c(=O)[nH]1)CCC3 [2/529]
IC50 [2]: 250 to 20000 nM

Nc1c(N2CCc3ccc(CNC(=O)c4nc5sc6c(c5c(=O)[nH]4)C4CCN6CC4)cc3C2)c(=O)c1=O [2/90]
IC50 [1]: < 100 nM

NC(=O)[C@@H]1CCC[C@@H]1NC(=O)c1nc2sc3c(c2c(=O)[nH]1)CCC3 [2/323]
IC50 [1]: 100 to 20000 nM

NS(=O)(=O)c1ccc(CNC(=O)c2nc3sc4c(c3c(=O)[nH]2)CCC4)s1 [2/367]
IC50 [1]: < 100 nM

CCNC(=O)CC1CCCc2sc3nc(C(=O)NCc4ccc5c(c4)NC(=O)CO5)[nH]c(=O)c3c21 (stereo not drawn) [2/269]
IC50 [2]: < 250 nM

O=C(NCc1csc2ccccc12)c1nc2sc3c(c2c(=O)[nH]1)CCC3 [2/333]
IC50 [1]: 100 to 20000 nM

O=C1COc2ccc(CNC(=O)c3nc4sc5c(c4c(=O)[nH]3)CCC(c3ccccc3)C5)cc2N1 (stereo not drawn) [2/145]
IC50 [1]: < 100 nM

Reference: patent publication US7749996B2, “Heterotricyclic metalloprotease inhibitors” (Alantos Pharmaceutical Holdings, Inc., priority 2006, dated 2010)
